For the test, the target named is Polθ theta (1-899) (hPolQ) (Homo sapiens (Human), UniProt O75417). The test is described as follows: Biological Assay 1: Polθ ATPase activity, NADH oxidation-coupled enzymatic assay (10 nM enzyme, 30 min). The settings on record: Polθ (1-899) 10 nM, 100 μM ATP, 300 nM dT50 ssDNA; Examples 1 to 268; read-out: ATPase NADH coupling:Standard Screening:hPolQ IC50. Format: biochemical. In short, it runs like this: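 Polθ (1-899) at 10 nM was preincubated with compound for 15 min at room temperature in 20 mM Tris pH 7.80, 80 mM KCl, 10 mM MgCl2. An equal volume of 100 μM ATP, 300 nM dT50 ssDNA and a PK/LDH–NADH coupling system was then added. A340 was read each minute for 30 min. IC50 came from rate slopes over 10-point series with a four-parameter fit.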
Sequence of Polθ theta (1-899) (hPolQ) (O75417 1-899): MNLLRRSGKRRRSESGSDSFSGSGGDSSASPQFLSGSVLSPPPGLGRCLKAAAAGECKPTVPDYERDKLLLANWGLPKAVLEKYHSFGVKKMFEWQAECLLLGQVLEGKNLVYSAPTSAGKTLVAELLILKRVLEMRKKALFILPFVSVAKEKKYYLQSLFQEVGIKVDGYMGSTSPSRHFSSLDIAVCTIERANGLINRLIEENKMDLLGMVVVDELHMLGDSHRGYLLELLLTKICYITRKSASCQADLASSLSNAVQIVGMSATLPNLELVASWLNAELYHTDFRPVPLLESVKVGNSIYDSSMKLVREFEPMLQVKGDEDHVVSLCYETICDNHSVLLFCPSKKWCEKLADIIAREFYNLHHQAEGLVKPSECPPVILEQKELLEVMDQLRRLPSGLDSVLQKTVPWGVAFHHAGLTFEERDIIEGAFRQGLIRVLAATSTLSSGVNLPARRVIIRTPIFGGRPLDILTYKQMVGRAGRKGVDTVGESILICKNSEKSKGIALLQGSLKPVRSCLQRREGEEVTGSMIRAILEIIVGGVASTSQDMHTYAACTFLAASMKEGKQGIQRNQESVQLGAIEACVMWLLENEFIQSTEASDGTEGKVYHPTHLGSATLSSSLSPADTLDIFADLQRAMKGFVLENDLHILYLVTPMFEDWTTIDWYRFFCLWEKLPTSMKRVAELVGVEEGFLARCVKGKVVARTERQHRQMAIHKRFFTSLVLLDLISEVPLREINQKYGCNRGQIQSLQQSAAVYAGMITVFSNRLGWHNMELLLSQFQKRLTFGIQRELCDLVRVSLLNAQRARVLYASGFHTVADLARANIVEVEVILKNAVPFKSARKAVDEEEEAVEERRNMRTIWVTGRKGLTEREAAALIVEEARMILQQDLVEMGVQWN

SMILES strings stand for the structures. pIC50: −log10 of the molar value.

Usually pIC50 stands for the IC50 on a negative log10 scale, so that one unit is a factor of ten.

With `CCc1cc(-c2cc(C)ncc2C(=O)Nc2nnc(OCc3ccc(C(C)(C)O)cn3)s2)c(OC)cn1` [Example 106, 2′-ethyl-N-(5-((5-(2-hydroxypropan-2-yl)pyridin-2-yl)methoxy)-1,3,4-thiadiazol-2-yl)-5′-methoxy-6-methyl-[4,4′-bipyridine]-3-carboxamide], the pIC50 is ≥ 6.70.

Consider `COc1cnc(C)cc1-c1cc(C)ncc1C(=O)Nc1nnc(OC[C@H]2C[C@H](O)C2)s1` [Example 107, N-(5-(((1r,3r)-3-hydroxycyclobutyl)methoxy)-1,3,4-thiadiazol-2-yl)-5′-methoxy-2′,6-dimethyl-[4,4′-bipyridine]-3-carboxamide], for which the pIC50 is ≥ 6.70.

`COc1cnc(Cl)cc1-c1cc(C)ncc1C(=O)Nc1nnc(OC[C@H]2C[C@H](O)C2)s1` [Example 108, 2′-chloro-N-(5-(((1r,3r)-3-hydroxycyclobutyl)methoxy)-1,3,4-thiadiazol-2-yl)-5′-methoxy-6-methyl-[4,4′-bipyridine]-3-carboxamide]: the negative-log IC50 (pIC50) is ≥ 6.70.

For `COc1cccc(F)c1-c1cc(C)ncc1C(=O)Nc1nnc(OCc2ccc(C(C)(C)O)nc2)s1` [Example 109, 4-(2-fluoro-6-methoxyphenyl)-N-(5-((6-(2-hydroxypropan-2-yl)pyridin-3-yl)methoxy)-1,3,4-thiadiazol-2-yl)-6-methylpyridine-3-carboxamide], the pIC50 was ≥ 6.70.

Take `COc1cccc(F)c1-c1cc(C)ncc1C(=O)Nc1nnc(OCc2cnc([C@H](C)O)cn2)s1` [Example 110, 4-(2-fluoro-6-methoxyphenyl)-N-(5-((5-((S)-1-hydroxyethyl)pyrazin-2-yl)methoxy)-1,3,4-thiadiazol-2-yl)-6-methylnicotinamide]: the negative-log IC50 (pIC50) is ≥ 6.70.

As for `COc1cccc(F)c1-c1cc(C)ncc1C(=O)Nc1nnc(OCc2cnc([C@@H](C)O)cn2)s1` [Example 111, 4-(2-fluoro-6-methoxyphenyl)-N-(5-((5-((R)-1-hydroxyethyl)pyrazin-2-yl)methoxy)-1,3,4-thiadiazol-2-yl)-6-methylnicotinamide], the negative-log IC50 (pIC50) is ≥ 6.70.

As for `COc1cccc(F)c1-c1cc(C)ncc1C(=O)Nc1nnc(OCC23CCC(O)(CC2)C3)s1` [Example 112, 4-(2-fluoro-6-methoxyphenyl)-N-(5-((4-hydroxybicyclo(2.2.1)heptan-1-yl)methoxy)-1,3,4-thiadiazol-2-yl)-6-methylpyridine-3-carboxamide], the pIC50 was ≥ 6.70.

As to `COc1cnc(Cl)cc1-c1cc(C)ncc1C(=O)Nc1nnc(OCc2ccc(OC(F)F)cn2)s1` [Example 113, 2′-chloro-N-(5-((5-(difluoromethoxy)pyridin-2-yl)methoxy)-1,3,4-thiadiazol-2-yl)-5′-methoxy-6-methyl-(4,4′-bipyridine)-3-carboxamide], the pIC50 is ≥ 6.70.

`COc1cccc(F)c1-c1cc(C)ncc1C(=O)Nc1nnc(OCc2ccc([S@](C)(=N)=O)cc2)s1` [Example 114, 4-(2-fluoro-6-methoxyphenyl)-6-methyl-N-(5-((4-((R)—S-methylsulfonimidoyl)benzyl)oxy)-1,3,4-thiadiazol-2-yl)nicotinamide]: the pIC50 was ≥ 6.70.

For the molecule `COc1cccc(F)c1-c1cc(C)ncc1C(=O)Nc1nnc(OCc2ccc([S@@](C)(=N)=O)cc2)s1` [Example 115, 4-(2-fluoro-6-methoxyphenyl)-6-methyl-N-(5-((4-((S)—S-methylsulfonimidoyl)benzyl)oxy)-1,3,4-thiadiazol-2-yl)nicotinamide], the negative logarithm of the IC50 (pIC50) is ≥ 6.70.

With `COc1cccc(F)c1-c1cc(C)ncc1C(=O)Nc1nnc(OCc2ccc3c(n2)CCC[C@@H]3O)s1` [Example 116, 4-(2-fluoro-6-methoxyphenyl)-N-(5-(((S)-5-hydroxy-5,6,7,8-tetrahydroquinolin-2-yl)methoxy)-1,3,4-thiadiazol-2-yl)-6-methylnicotinamide], the pIC50 is ≥ 6.70.

With `COc1cccc(F)c1-c1cc(C)ncc1C(=O)Nc1nnc(OCc2ccc3c(n2)CCC[C@H]3O)s1` [Example 117, 4-(2-fluoro-6-methoxyphenyl)-N-(5-(((R)-5-hydroxy-5,6,7,8-tetrahydroquinolin-2-yl)methoxy)-1,3,4-thiadiazol-2-yl)-6-methylnicotinamide], the pIC50 was ≥ 6.70.

For `COc1cnc(C)cc1-c1cc(C)ncc1C(=O)Nc1nnc(OC[C@H]2C[C@@H](O)C2)s1` [Example 118, N-(5-(((1s,3s)-3-hydroxycyclobutyl)methoxy)-1,3,4-thiadiazol-2-yl)-5′-methoxy-2′,6-dimethyl-[4,4′-bipyridine]-3-carboxamide], the pIC50 was ≥ 6.70.

As for `COc1cccc(F)c1-c1cc(C)ncc1C(=O)Nc1nnc(OCc2cnc(C(C)(C)O)cn2)s1` [Example 119, 4-(2-fluoro-6-methoxyphenyl)-N-(5-((5-(2-hydroxypropan-2-yl)pyrazin-2-yl)methoxy)-1,3,4-thiadiazol-2-yl)-6-methylnicotinamide], the pIC50 is 6.30 to 6.70.

Turning to `COc1cccnc1-c1cc(C)ncc1C(=O)Nc1nnc(OCc2ccc(Cl)cn2)s1` [Example 120, N-(5-((5-chloropyridin-2-yl)methoxy)-1,3,4-thiadiazol-2-yl)-3-methoxy-6′-methyl-(2,4′-bipyridine)-3′-carboxamide], the pIC50 is 6.30 to 6.70.

On to `COc1ccc(Cl)cc1-c1cnncc1C(=O)Nc1nnc(OCC23CCC(O)(CC2)CC3)s1` [Example 121, 5-(5-chloro-2-methoxyphenyl)-N-(5-((4-hydroxybicyclo(2.2.2)octan-1-yl)methoxy)-1,3,4-thiadiazol-2-yl)pyridazine-4-carboxamide], for which the negative logarithm of the IC50 (pIC50) is 6.30 to 6.70.

`COc1ccc(Cl)cc1-c1cc(C)ncc1C(=O)Nc1nnc(OCc2ccc([S@](C)(=N)=O)cc2)s1` [Example 122, (R)-4-(5-chloro-2-methoxyphenyl)-6-methyl-N-(5-((4-(S-methylsulfonimidoyl)benzyl)oxy)-1,3,4-thiadiazol-2-yl)nicotinamide]: the pIC50 is ≥ 6.70.

Take `COc1ccc(Cl)cc1-c1cc(C)ncc1C(=O)Nc1nnc(OCc2ccc([S@@](C)(=N)=O)cc2)s1` [Example 123, (S)-4-(5-chloro-2-methoxyphenyl)-6-methyl-N-(5-((4-(S-methylsulfonimidoyl)benzyl)oxy)-1,3,4-thiadiazol-2-yl)nicotinamide]: the pIC50 is ≥ 6.70.

As to `COC(C)(C)c1ccc(COc2nnc(NC(=O)c3cnc(C)cc3-c3c(F)cccc3OC(F)F)s2)nc1` [Example 124, 4-(2-(difluoromethoxy)-6-fluorophenyl)-N-(5-((5-(2-methoxypropan-2-yl)pyridin-2-yl)methoxy)-1,3,4-thiadiazol-2-yl)-6-methylpyridine-3-carboxamide], the negative logarithm of the IC50 (pIC50) was ≥ 6.70.

In the case of `COc1cnc(Cl)cc1-c1cc(C)ncc1C(=O)Nc1nnc(OCc2ccc(C(C)(C)OC)cn2)s1` [Example 125, 2′-chloro-5′-methoxy-N-(5-((5-(2-methoxypropan-2-yl)pyridin-2-yl)methoxy)-1,3,4-thiadiazol-2-yl)-6-methyl-(4,4′-bipyridine)-3-carboxamide], the pIC50 is ≥ 6.70.

On to `COc1cnc(C)cc1-c1cc(C)ncc1C(=O)Nc1nnc(OCc2ccc(C(C)(C)OC)cn2)s1` [Example 126, 5′-methoxy-N-(5-((5-(2-methoxypropan-2-yl)pyridin-2-yl)methoxy)-1,3,4-thiadiazol-2-yl)-2′,6-dimethyl-(4,4′-bipyridine)-3-carboxamide], for which the pIC50 is ≥ 6.70.
